Assay results published in paper PMC5218480 (PLoS ONE, 2017).

System: MV-4-11 cells
Assay: Gene expression microarray analysis (Affymetrix PrimeView) and GSEA
Format: cell-based, human
Parameters: RFU PODN (11730768_x_at) / Fold change /veh PODN (11730768_x_at) / RFU LINC00158 (11744669_a_at) / Fold change /veh LINC00158 (11744669_a_at) / RFU DUSP10 (11751237_a_at) / Fold change /veh DUSP10 (11751237_a_at) / RFU ID3 (11757404_x_at) / Fold change /veh ID3 (11757404_x_at) / RFU PLEKHG5 (11737974_s_at) / Fold change /veh PLEKHG5 (11737974_s_at) / RFU LRRC4B (11730491_at) / Fold change /veh LRRC4B (11730491_at) / RFU GIMAP4 (11747438_a_at) / Fold change /veh GIMAP4 (11747438_a_at) / RFU KRT8 (11758183_x_at) / Fold change /veh KRT8 (11758183_x_at) / RFU CNN1 (11734310_a_at) / Fold change /veh CNN1 (11734310_a_at) / RFU VPS37D (11726825_at) / Fold change /veh VPS37D (11726825_at) / RFU C10orf10 (11716522_x_at) / Fold change /veh C10orf10 (11716522_x_at) / RFU KIR2DL2 /// KIR2DL4 /// KIR2DL5A /// KIR2DL5B /// KIR2DS1 /// KIR2DS2 /// KIR2DS3 /// KIR2DS4 /// KIR3DL3 /// KIR3DL3 /// KIR3DS1 (11738374_at) / Fold change /veh KIR2DL2 /// KIR2DL4 /// KIR2DL5A /// KIR2DL5B /// KIR2DS1 /// KIR2DS2 /// KIR2DS3 /// KIR2DS4 /// KIR3DL3 /// KIR3DL3 /// KIR3DS1 (11738374_at) / RFU C1QL1 (11718748_at) / Fold change /veh C1QL1 (11718748_at) / RFU TMPRSS4 (11747572_a_at) / Fold change /veh TMPRSS4 (11747572_a_at) / RFU HAMP (11756126_x_at) / Fold change /veh HAMP (11756126_x_at) / RFU RNFT2 (11725882_a_at) / Fold change /veh RNFT2 (11725882_a_at) / RFU NR4A2 (11747474_a_at) / Fold change /veh NR4A2 (11747474_a_at) / RFU ABCC12 (11746883_a_at) / Fold change /veh ABCC12 (11746883_a_at) / RFU TMEM136 (11760407_x_at) / Fold change /veh TMEM136 (11760407_x_at) / RFU CLDN22 /// WWC2 (11732394_at) / Fold change /veh CLDN22 /// WWC2 (11732394_at) / RFU HLA-DPB1 (11760878_x_at) / Fold change /veh HLA-DPB1 (11760878_x_at) / RFU SPINT1 (11716480_a_at) / Fold change /veh SPINT1 (11716480_a_at) / RFU GAP43 (11754022_s_at) / Fold change /veh GAP43 (11754022_s_at) / RFU A4GNT (11735810_at) / Fold change /veh A4GNT (11735810_at) / RFU PRB3 (11715151_x_at) / Fold change /veh PRB3 (11715151_x_at) / RFU TUBB4B (11761932_at) / Fold change /veh TUBB4B (11761932_at) / RFU CAPN14 (11732068_a_at) / Fold change /veh CAPN14 (11732068_a_at) / RFU TMCC2 (11721928_a_at) / Fold change /veh TMCC2 (11721928_a_at) / RFU IRGQ (11745062_a_at) / Fold change /veh IRGQ (11745062_a_at) / RFU FAM174B (11720279_a_at) / Fold change /veh FAM174B (11720279_a_at) / RFU TMPRSS4 (11748680_a_at) / Fold change /veh TMPRSS4 (11748680_a_at) / RFU FAM212B (11763350_a_at) / Fold change /veh FAM212B (11763350_a_at) / RFU PLEKHG5 (11743358_a_at) / Fold change /veh PLEKHG5 (11743358_a_at) / RFU ZSCAN30 (11745921_a_at) / Fold change /veh ZSCAN30 (11745921_a_at) / RFU CMKLR1 (11741424_a_at) / Fold change /veh CMKLR1 (11741424_a_at) / RFU LOC101060620 /// MAPK8IP1 (11723275_at) / Fold change /veh LOC101060620 /// MAPK8IP1 (11723275_at) / RFU SPTSSB (11747773_x_at) / Fold change /veh SPTSSB (11747773_x_at) / RFU PRSS12 (11739890_at) / Fold change /veh PRSS12 (11739890_at) / RFU BIN1 (11741810_x_at) / Fold change /veh BIN1 (11741810_x_at) / RFU WNT11 (11732464_a_at) / Fold change /veh WNT11 (11732464_a_at) / RFU C10orf10 (11716521_a_at) / Fold change /veh C10orf10 (11716521_a_at) / RFU C5orf56 (11738089_at) / Fold change /veh C5orf56 (11738089_at) / RFU CYB561 (11721691_x_at) / Fold change /veh CYB561 (11721691_x_at) / RFU ANKRD19P (11752326_a_at) / Fold change /veh ANKRD19P (11752326_a_at) / RFU OR2T12 /// OR2T33 /// OR2T8 (11738714_s_at) / Fold change /veh OR2T12 /// OR2T33 /// OR2T8 (11738714_s_at) / RFU VCAN (11748164_a_at) / Fold change /veh VCAN (11748164_a_at) / RFU JSRP1 (11732532_at) / Fold change /veh JSRP1 (11732532_at) / RFU KRTAP10-11 (11738290_x_at) / Fold change /veh KRTAP10-11 (11738290_x_at) / RFU MYO3A (11730013_a_at) / Fold change /veh MYO3A (11730013_a_at) / RFU EBF3 (11725865_a_at) / Fold change /veh EBF3 (11725865_a_at) / RFU CAMK2N1 (11719241_x_at) / Fold change /veh CAMK2N1 (11719241_x_at) / RFU C5orf56 (11738088_a_at) / Fold change /veh C5orf56 (11738088_a_at) / RFU OLFML3 (11715873_a_at) / Fold change /veh OLFML3 (11715873_a_at) / RFU LOC100653217 /// NTM (11731650_a_at) / Fold change /veh LOC100653217 /// NTM (11731650_a_at) / RFU MAPK11 (11762145_a_at) / Fold change /veh MAPK11 (11762145_a_at) / RFU FIZ1 (11724087_x_at) / Fold change /veh FIZ1 (11724087_x_at) / RFU OASL (11726364_x_at) / Fold change /veh OASL (11726364_x_at) / RFU SOX15 (11748057_x_at) / Fold change /veh SOX15 (11748057_x_at) / RFU CD79A (11719716_a_at) / Fold change /veh CD79A (11719716_a_at) / RFU HIST1H1D (11736915_at) / Fold change /veh HIST1H1D (11736915_at) / RFU CASKIN2 (11723855_a_at) / Fold change /veh CASKIN2 (11723855_a_at) / RFU LOC730098 (11760151_x_at) / Fold change /veh LOC730098 (11760151_x_at) / RFU OR4N2 (11742367_at) / Fold change /veh OR4N2 (11742367_at) / RFU PRRT2 (11749266_a_at) / Fold change /veh PRRT2 (11749266_a_at) / RFU SNX32 (11753110_a_at) / Fold change /veh SNX32 (11753110_a_at) / RFU CDHR5 (11726645_a_at) / Fold change /veh CDHR5 (11726645_a_at) / RFU RCAN1 (11760418_a_at) / Fold change /veh RCAN1 (11760418_a_at) / RFU FAM167A (11723789_a_at) / Fold change /veh FAM167A (11723789_a_at) / RFU FAM26E (11764081_at) / Fold change /veh FAM26E (11764081_at) / RFU ISYNA1 (11749810_s_at) / Fold change /veh ISYNA1 (11749810_s_at) / RFU ACY1 (11761880_at) / Fold change /veh ACY1 (11761880_at) / RFU 11764098_at / Fold change /veh 11764098_at / RFU SAMD14 (11745864_x_at) / Fold change /veh SAMD14 (11745864_x_at) / RFU NPB (11741838_a_at) / Fold change /veh NPB (11741838_a_at) / RFU TMPRSS6 (11731388_a_at) / Fold change /veh TMPRSS6 (11731388_a_at) / RFU KRTAP10-2 (11738614_at) / Fold change /veh KRTAP10-2 (11738614_at) / RFU ARHGAP8 /// PRR5-ARHGAP8 (11727945_x_at) / Fold change /veh ARHGAP8 /// PRR5-ARHGAP8 (11727945_x_at) / RFU KRTAP5-7 /// NADSYN1 (11734609_at) / Fold change /veh KRTAP5-7 /// NADSYN1 (11734609_at) / RFU RASL12 (11751679_a_at) / Fold change /veh RASL12 (11751679_a_at) / RFU CDKN2B (11736163_a_at) / Fold change /veh CDKN2B (11736163_a_at) / RFU PRF1 (11729649_at) / Fold change /veh PRF1 (11729649_at) / RFU, ZNF638 /// ZNF638-IT1 / Fold change vs veh, ZNF638 /// ZNF638-IT1 / RFU, PANK3 / Fold change vs veh, PANK3 / RFU, SH3YL1 / Fold change vs veh, SH3YL1 / RFU, ZEB2 / Fold change vs veh, ZEB2 / RFU, NRIP1 / Fold change vs veh, NRIP1 / RFU, PTTG1IP / Fold change vs veh, PTTG1IP / RFU, CAPN2 / Fold change vs veh, CAPN2 / RFU, MED14 / Fold change vs veh, MED14 / RFU, SNORA58 / Fold change vs veh, SNORA58 / RFU, C1orf63 / Fold change vs veh, C1orf63 / RFU, LRRFIP1 / Fold change vs veh, LRRFIP1 / RFU, NDUFAF7 / Fold change vs veh, NDUFAF7 / RFU, SLC12A2 / Fold change vs veh, SLC12A2 / RFU, IBTK / Fold change vs veh, IBTK / RFU, ESF1 / Fold change vs veh, ESF1 / Fold change vs veh, TMEM50B / RFU, TAOK1 / Fold change vs veh, TAOK1 / RFU, ACBD3 / Fold change vs veh, ACBD3 / RFU, TMA16 / Fold change vs veh, TMA16 / RFU, RWDD3 / Fold change vs veh, RWDD3 / RFU, BCAT1 / Fold change vs veh, BCAT1 / RFU, EDEM3 / Fold change vs veh, EDEM3 / RFU, TMEM33 / Fold change vs veh, TMEM33 / RFU, WDR75 / Fold change vs veh, WDR75 / RFU, AHCTF1 / Fold change vs veh, AHCTF1 / RFU, TFRC / Fold change vs veh, TFRC / RFU, ZDHHC17 / Fold change vs veh, ZDHHC17 / RFU, NOM1 / Fold change vs veh, NOM1 / RFU, ARL8B / Fold change vs veh, ARL8B / RFU, ZBTB11 / Fold change vs veh, ZBTB11 / RFU, TAMM41 / Fold change vs veh, TAMM41 / RFU, KIAA1704 /// LOC100996395 / Fold change vs veh, KIAA1704 /// LOC100996395 / RFU, ING1 / Fold change vs veh, ING1 / RFU, TRMT61B / Fold change vs veh, TRMT61B / RFU, FUBP3 / Fold change vs veh, FUBP3 / RFU, TP53 / Fold change vs veh, TP53 / RFU, TNKS2 / Fold change vs veh, TNKS2 / RFU, ZFP14 / Fold change vs veh, ZFP14 / RFU, ACTR2 / Fold change vs veh, ACTR2 / RFU, PPP3R1 / Fold change vs veh, PPP3R1 / RFU, PIK3R1 / Fold change vs veh, PIK3R1 / RFU, HNRNPA1 / Fold change vs veh, HNRNPA1 / RFU, RNF170 / Fold change vs veh, RNF170 / RFU, ZNF28 / Fold change vs veh, ZNF28 / RFU, RNGTT / Fold change vs veh, RNGTT / RFU, OGT / Fold change vs veh, OGT / RFU, BRD1 / Fold change vs veh, BRD1 / RFU, MARS / Fold change vs veh, MARS / RFU, ZNF655 / Fold change vs veh, ZNF655 / RFU, FAHD1 / Fold change vs veh, FAHD1 / RFU, BDP1 / Fold change vs veh, BDP1 / RFU, LRRCC1 / Fold change vs veh, LRRCC1 / RFU, ARID1A / Fold change vs veh, ARID1A / RFU, ZNF146 / Fold change vs veh, ZNF146 / RFU, ZNF330 / Fold change vs veh, ZNF330 / RFU, GPN3 / Fold change vs veh, GPN3 / RFU, C9orf123 / Fold change vs veh, C9orf123 / RFU, N4BP2L2 / Fold change vs veh, N4BP2L2 / RFU, ARFIP1 / Fold change vs veh, ARFIP1 / RFU, FAM179B / Fold change vs veh, FAM179B / RFU, BCL10 / Fold change vs veh, BCL10 / RFU, UHRF1BP1L / Fold change vs veh, UHRF1BP1L / RFU, BET1 / Fold change vs veh, BET1 / RFU, CNOT2 / Fold change vs veh, CNOT2 / RFU, ZNF268 / Fold change vs veh, ZNF268 / Fold change vs veh, ZNF507 / RFU, DGCR2 / Fold change vs veh, DGCR2 / RFU, WDSUB1 / Fold change vs veh, WDSUB1 / Fold change vs veh, HSP90B1 /// MIR3652 / RFU, ADSS / Fold change vs veh, ADSS / RFU, GK / Fold change vs veh, GK / RFU, ZNF148 / Fold change vs veh, ZNF148 / RFU, TAF9 / Fold change vs veh, TAF9 / RFU, SLC1A5 / Fold change vs veh, SLC1A5 / RFU, SLMO2 / Fold change vs veh, SLMO2 / RFU, ABCC4 / Fold change vs veh, ABCC4 / RFU, LOC101060439 /// RAP1B / Fold change vs veh, LOC101060439 /// RAP1B / RFU, RFX7 / Fold change vs veh, RFX7 / RFU, GTPBP10 / Fold change vs veh, GTPBP10 / RFU, CNEP1R1 / Fold change vs veh, CNEP1R1 / RFU, BIVM-ERCC5 /// ERCC5 / Fold change vs veh, BIVM-ERCC5 /// ERCC5 / RFU, ILF3 / Fold change vs veh, ILF3 / RFU 11762660_at / Fold change /veh 11762660_at / RFU VCAN (11757783_s_at) / Fold change /veh VCAN (11757783_s_at) / RFU DDX43 (11728927_at) / Fold change /veh DDX43 (11728927_at) / RFU KRT8 (11758188_x_at) / Fold change /veh KRT8 (11758188_x_at) / RFU NKD1 (11759106_at) / Fold change /veh NKD1 (11759106_at) / RFU SRD5A1 (11742802_a_at) / Fold change /veh SRD5A1 (11742802_a_at) / RFU TPSAB1 /// TPSB2 (11721975_s_at) / Fold change /veh TPSAB1 /// TPSB2 (11721975_s_at) / RFU GSTM3 (11746129_a_at) / Fold change /veh GSTM3 (11746129_a_at) / RFU IL23R (11737362_x_at) / Fold change /veh IL23R (11737362_x_at) / RFU TMEM51 (11727254_a_at) / Fold change /veh TMEM51 (11727254_a_at) / RFU PIWIL2 (11732686_x_at) / Fold change /veh PIWIL2 (11732686_x_at) / RFU ORM1 (11744905_x_at) / Fold change /veh ORM1 (11744905_x_at) / RFU CCDC152 (11743942_at) / Fold change /veh CCDC152 (11743942_at) / RFU ECM1 (11717891_a_at) / Fold change /veh ECM1 (11717891_a_at) / RFU IL23R (11748794_a_at) / Fold change /veh IL23R (11748794_a_at) / RFU TNFAIP8L3 (11732012_x_at) / Fold change /veh TNFAIP8L3 (11732012_x_at) / RFU MBOAT4 (11741988_at) / Fold change /veh MBOAT4 (11741988_at) / RFU 11764193_at / Fold change /veh 11764193_at / RFU TMEM53 (11763286_at) / Fold change /veh TMEM53 (11763286_at) / RFU MAGEB2 (11727129_at) / Fold change /veh MAGEB2 (11727129_at) / RFU TMEM200A (11744735_a_at) / Fold change /veh TMEM200A (11744735_a_at) / RFU CCDC152 (11751479_a_at) / Fold change /veh CCDC152 (11751479_a_at) / RFU FAM211A (11726209_a_at) / Fold change /veh FAM211A (11726209_a_at) / RFU RGS16 (11746705_a_at) / Fold change /veh RGS16 (11746705_a_at) / RFU VCAN (11755009_s_at) / Fold change /veh VCAN (11755009_s_at) / RFU RHOB (11743442_s_at) / Fold change /veh RHOB (11743442_s_at) / RFU RGS16 (11720943_a_at) / Fold change /veh RGS16 (11720943_a_at) / RFU RGS16 (11720944_at) / Fold change /veh RGS16 (11720944_at) / RFU, VPS4B / Fold change vs veh, VPS4B / RFU, CREB1 / Fold change vs veh, CREB1 / RFU, DNAJC13 / Fold change vs veh, DNAJC13 / RFU, GNAQ / Fold change vs veh, GNAQ / RFU, CDK5R1 / Fold change vs veh, CDK5R1 / RFU, ZRANB3 / Fold change vs veh, ZRANB3 / RFU, CUL4A / Fold change vs veh, CUL4A / RFU, CCNY / Fold change vs veh, CCNY / RFU, UFL1 / Fold change vs veh, UFL1 / RFU, COG3 / Fold change vs veh, COG3 / RFU, DIAPH2 / Fold change vs veh, DIAPH2 / RFU, SKA2 / Fold change vs veh, SKA2 / RFU, AFF3 / Fold change vs veh, AFF3 / RFU, LMF1 / Fold change vs veh, LMF1 / RFU, IPO11 / Fold change vs veh, IPO11 / RFU, DFFB / Fold change vs veh, DFFB / RFU, FOXP1 / Fold change vs veh, FOXP1 / RFU, CARD8 / Fold change vs veh, CARD8 / RFU, STRN3 / Fold change vs veh, STRN3 / RFU, ADK / Fold change vs veh, ADK / RFU, RASSF2 / Fold change vs veh, RASSF2 / RFU, WIPF1 / Fold change vs veh, WIPF1 / RFU, LARP1B / Fold change vs veh, LARP1B / RFU, RASA1 / Fold change vs veh, RASA1 / RFU, RB1 / Fold change vs veh, RB1 / RFU, PPFIA1 / Fold change vs veh, PPFIA1 / RFU, MAT2A / Fold change vs veh, MAT2A / RFU, CCT5 / Fold change vs veh, CCT5 / RFU, WDR92 / Fold change vs veh, WDR92 / RFU, CUX1 / Fold change vs veh, CUX1 / RFU, TTC7A / Fold change vs veh, TTC7A / RFU, TMEM135 / Fold change vs veh, TMEM135 / RFU, DEPTOR / Fold change vs veh, DEPTOR / RFU, CPM / Fold change vs veh, CPM / RFU, DNAJB6 / Fold change vs veh, DNAJB6 / RFU, CACNA2D3 / Fold change vs veh, CACNA2D3 / RFU, DTX4 / Fold change vs veh, DTX4 / RFU, TFCP2 / Fold change vs veh, TFCP2 / RFU, GMCL1 /// GMCL1P1 / Fold change vs veh, GMCL1 /// GMCL1P1 / RFU, AEBP2 / Fold change vs veh, AEBP2 / RFU, SNHG1 /// SNORD22 /// SNORD25 /// SNORD26 /// SNORD27 /// SNORD28 /// SNORD29 /// SNORD31 / Fold change vs veh, SNHG1 /// SNORD22 /// SNORD25 /// SNORD26 /// SNORD27 /// SNORD28 /// SNORD29 /// SNORD31 / Fold change (Aza/veh), C12orf56 (ProbeSet 11735607_a_at) / Fold change (ACY-1035/veh), C12orf56 (ProbeSet 11735607_a_at) / Fold change (Aza/veh), FGFR1OP (ProbeSet 11751329_s_at) / Fold change (ACY-1035/veh), FGFR1OP (ProbeSet 11751329_s_at) / Fold change (Aza/veh), VPS36 (ProbeSet 11739960_a_at) / Fold change (ACY-1035/veh), VPS36 (ProbeSet 11739960_a_at) / RFU SYPL1 (11715823_x_at) / Fold change /veh SYPL1 (11715823_x_at) / RFU IGFBP7 (11715501_s_at) / Fold change /veh IGFBP7 (11715501_s_at) / RFU REEP3 (11722064_at) / Fold change /veh REEP3 (11722064_at) / RFU IGLL1 (11728026_x_at) / Fold change /veh IGLL1 (11728026_x_at): dose or concentration left out as unconfirmed
Conditions: MV-4-11 cells, 48 hours

Nc1ncn([C@@H]2O[C@H](CO)[C@@H](O)[C@H]2O)c(=O)n1 [azacitidine]
RFU MAPK11 (11762145_a_at): 24.54 RFU
